Experiments:
[1] = test system: Homo sapiens; assay: Toxicity in 1 to 12 months old infant assessed as adverse events at 13.5 mg/kg, po single dose within 8 days; assay type: organism-based; parameters: dose 13.5 mg/kg, route oral; details: in vivo, 192 h
[2] = test system: Homo sapiens; assay: Toxicity in 1 to 12 months old infant assessed as severe adverse events at 13.5 mg/kg, po single dose within 8 days; assay type: organism-based; parameters: dose 13.5 mg/kg, route oral; details: in vivo, 192 h
[3] = test system: Homo sapiens; assay: Tmax in 2 to <6 months old infant assessed as penciclovir at 6.6 +/- 1.4 mg/kg, po single dose; assay type: ADME, organism-based; parameters: route oral; details: in vivo
[4] = test system: Homo sapiens; assay: Cmax in 2 to <6 months old infant assessed as penciclovir at 6.6 +/- 1.4 mg/kg, po single dose; assay type: ADME, organism-based; parameters: route oral; details: in vivo
[5] = test system: Homo sapiens; assay: AUC (0 to 6 hrs) in 6 to 12 months old infant assessed as penciclovir at 6.6 +/- 1.4 mg/kg, po single dose; assay type: ADME, organism-based, Plasma; parameters: time < 6 hr, route oral; details: in vivo
[6] = test system: Homo sapiens; assay: Cmax in 6 to 12 months old infant assessed as penciclovir at 6.6 +/- 1.4 mg/kg, po single dose; assay type: ADME, organism-based; parameters: route oral; details: in vivo
[7] = test system: Homo sapiens; assay: AUC (0 to 6 hrs) in 2 to <6 months old infant assessed as penciclovir at 6.6 +/- 1.4 mg/kg, po single dose; assay type: ADME, organism-based, Plasma; parameters: time < 6 hr, route oral; details: in vivo
[8] = test system: Homo sapiens; assay: Toxicity in 1 to 12 months old infant assessed as moderate adverse events at 13.5 mg/kg, po single dose within 8 days; assay type: organism-based; parameters: dose 13.5 mg/kg, route oral; details: in vivo, 192 h
[9] = test system: Homo sapiens; assay: AUC (0 to 6 hrs) in 1 to <3 months old infant assessed as penciclovir at 6.6 +/- 1.4 mg/kg, po single dose; assay type: ADME, organism-based, Plasma; parameters: time < 6 hr, route oral; details: in vivo
[10] = test system: Homo sapiens; assay: Cmax in 1 to <3 months old infant assessed as penciclovir at 6.6 +/- 1.4 mg/kg, po single dose; assay type: ADME, organism-based; parameters: route oral; details: in vivo
[11] = test system: Homo sapiens; assay: Tmax in 1 to <3 months old infant assessed as penciclovir at 6.6 +/- 1.4 mg/kg, po single dose; assay type: ADME, organism-based; parameters: route oral; details: in vivo
[12] = test system: Homo sapiens; assay: Toxicity in 1 to 12 months old infant assessed as mild adverse events at 13.5 mg/kg, po single dose within 8 days; assay type: organism-based; parameters: dose 13.5 mg/kg, route oral; details: in vivo, 192 h
[13] = test system: Homo sapiens; assay: Tmax in 6 to 12 months old infant assessed as penciclovir at 6.6 +/- 1.4 mg/kg, po single dose; assay type: ADME, organism-based; parameters: route oral; details: in vivo

CC(=O)OCC(CCn1cnc2cnc(N)nc21)COC(C)=O [FAMCICLOVIR]
Activity [1]: 44.4%
Activity [2]: 5.6%
Tmax [3]: 4 h
Cmax [4]: 740 ng/mL
AUC [5]: 8770 ng·h/mL
Cmax [6]: 3240 ng/mL
AUC [7]: 3160 ng·h/mL
Activity [8]: 22.2%
AUC [9]: 2110 ng·h/mL
Cmax [10]: 690 ng/mL
Tmax [11]: 1 h
Activity [12]: 16.7%
Tmax [13]: 1.02 h
